Assay results published in article PMC6154583, “Optimized 4,5-Diarylimidazoles as Potent/Selective Inhibitors of Protein Kinase CK1δ and Their Structural Relation to p38α MAPK” (Molecules : A Journal of Synthetic Chemistry and Natural …, 2017).
Each block holds one compound with its values, some of them ahead of it.

Assays:
CK1ε = test system: CK1ε; design: method as in PMID 19591487; conditions: cited from earlier work
CK1δ = CK1δ (Homo sapiens, UniProt P48730); design: method as in PMID 19591487; conditions: CK1δ versus CK1ε; cited from earlier work
CK1δ, sequence (P48730 whole entry): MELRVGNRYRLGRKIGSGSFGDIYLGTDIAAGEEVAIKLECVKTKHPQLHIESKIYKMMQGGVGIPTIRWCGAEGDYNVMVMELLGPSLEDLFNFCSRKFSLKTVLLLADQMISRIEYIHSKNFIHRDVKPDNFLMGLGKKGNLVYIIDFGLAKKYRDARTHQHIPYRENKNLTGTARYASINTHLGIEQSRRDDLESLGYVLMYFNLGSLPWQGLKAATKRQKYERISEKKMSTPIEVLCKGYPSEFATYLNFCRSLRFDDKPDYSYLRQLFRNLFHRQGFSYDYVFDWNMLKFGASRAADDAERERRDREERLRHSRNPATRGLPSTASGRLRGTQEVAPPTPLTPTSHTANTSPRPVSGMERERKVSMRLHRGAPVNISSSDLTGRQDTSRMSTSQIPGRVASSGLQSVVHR

[1] = Chemical stability in DMSO solution by HPLC analysis; format: physicochemical; conditions: within a short period of time after preparing a solution in DMSO
Excerpt: The binding modes described above are based on (E)-configured cinnamic moieties of 1 and 2, respectively. […] Accordingly, computational analysis assume these (Z)-stereoisomers to be less bioactive. Furthermore, the acrylamide Michael acceptor moiety of the cinnamic acid side chain was considered responsible for the observed chemical instability of 1 and 2 in solution. […] Consequently, our primary goal towards an optimized inhibitor was to gain chemical stability. Thus, having identified the cinnamic side chain to be responsible for the chemical instability issue we aimed towards stable side chains attached at the validated 2-aminopyridine core moiety. By these modifications we set out to explore the respective hydrophobic region II formerly occupied by the cinnamic acid moiety. At the same time, both potency and selectivity for CK1δ were taken into account. Therefore, in our systematic approach four structurally divergent series of inhibitors with variable side chains (Scheme 1) have been designed based on the following considerations.
They were stable in DMSO solution at room temperature without detectable degradation over a period of 72 h by HPLC analysis.

Panc89 cells = assay: MTT viability assay; format: cell-based, human; conditions: 48 h incubation, mean ± SD, n = 3
Procedure: (§1) The human pancreatic cancer cell lines Colo357 [61], Panc-1 [62], and MiaPaCa-2 [63] were grown in Dulbecco’s modified Eagle’s medium (DMEM). Panc89 [64] was grown in DMEM:RPMI-1640 medium in ratio 1:1. The human colon adenocarcinoma cell line HT-29 [65] was grown in McCoy’s 5A medium. All media were supplemented with 10% fetal calf serum (FCS), 100 units·mL^−1 penicillin, 100 µg∙mL^−1 streptomycin and 2 mM glutamine. All cells were grown at 37 °C in a humidified 5% carbon dioxide atmosphere.
(§2) In order to determine the cytotoxic effects of investigated inhibitors conventional MTT assay were used. 1 × 10^4 cells∙well^−1 were seeded in 96-well cell culture plates and cultivated for 24 h. Cell lines were exposed to increasing concentrations of the indicated inhibitor compounds, with untreated and DMSO-treated cells serving as control. After an incubation period of 48 h 10 µL of MTT solution (5 mg∙mL^−1 in PBS) were added and cells were incubated for 4 h. MTT-containing medium was carefully removed and 100 µL acidic isopropanol (0.04 N HCl in isopropanol) per well were added. For dissolution of formazan crystals plates were shaken for 30 min on an orbital shaker in the dark. Finally, dissolved crystals were measured spectrophotometrically at […]. All experiments were performed in triplicate with four technical replicates per assay. Results were normalized considering the mean optical density value of control wells as 100%. GraphPad Prism 6 (La Jolla, CA, USA) software was used to calculate EC50 values.

Colo357 cells = assay: MTT viability assay; format: cell-based, human; conditions: mean ± SD, n = 3
Procedure: as §1, §2

CK1α = conditions: read-out: IC50 CK1α; cited from earlier work
CK1δ/ε = conditions: read-out: IC50 CK1δ/ε; cited from earlier work
MiaPaCa-2 cells = assay: MTT viability assay; format: cell-based, human; conditions: mean ± SD, n = 3
Procedure: as §1, §2

Panc-1 cells = assay: MTT viability assay; format: cell-based, human; conditions: mean ± SD, n = 3
Procedure: as §1, §2

HT-29 cells = assay: MTT viability assay; format: cell-based; conditions: Homo sapiens, dilution series
Procedure: as §1
In order to determine the cytotoxic effects of investigated inhibitors conventional MTT assay were used. 1 × 10^4 cells∙well^−1 were seeded in 96-well cell culture plates and cultivated for 24 h. Cell lines were exposed to increasing concentrations of the indicated inhibitor compounds, with untreated and DMSO-treated cells serving as control. After an incubation period of 48 h 10 µL of MTT solution (5 mg∙mL^−1 in PBS) were added and cells were incubated for 4 h. […] Finally, dissolved crystals were measured spectrophotometrically at 570 nM. […]
Figure S1. (A) HT-29 cells were treated with compounds of series 1 at 20 µM concentration and cell viability was measured by MTT viability assay. […]
screening at 20 µM concentration. Cell viability was determined by MTT assay and the EC50 value was calculated using GraphPad Prism 6. […]

[2] = Homo sapiens, COLO357, 48 h incubation
[3] = Homo sapiens, MIA PaCa-2, 48 h incubation
[4] = Homo sapiens, PANC-1, 48 h incubation

Compound: COc1ccc(C=CC(=O)Nc2cc(-c3nc([S+](C)[O-])[nH]c3-c3ccc(F)cc3)ccn2)c(OC)c1 (stereo not drawn) [compound 2]
IC50 (CK1ε): 0.447 µM | discrimination of isoforms δ and ε (CK1δ): at least 40 fold | chemical stability in DMSO solution (HPLC analysis) [1]: increasing number of not identifiable degradation products

EC50 (Panc89 cells; Homo sapiens): 6.1 ± 3 µM | EC50 (Colo357 cells; [2]): 1.9 ± 0.6 µM
Compound: COc1cccc(CCC(=O)Nc2cc(-c3nc(SC)[nH]c3-c3ccc(F)cc3)ccn2)c1OC [11c, 3-(2,3-Dimethoxyphenyl)-N-(4-(5-(4-fluorophenyl)-2-(methylthio)-1H-imidazol-4-yl)-pyridin-2-yl)-propanamide]

EC50 (Panc89 cells): 7.5 ± 3 µM | EC50 (Colo357 cells; 48 h incubation): 14.9 ± 2.6 µM
Compound: CSc1nc(-c2ccnc(NC(=O)Nc3ccc(C)c(Cl)c3)c2)c(-c2ccc(F)cc2)[nH]1 [12e, 1-(3-Chloro-4-methylphenyl)-3-(4-(5-(4-fluorophenyl)-2-(methylthio)-1H-imidazol-4-yl)-pyridin-2-yl)-carbamide]

Compound: COc1cc(OC)c(C=C2C(O)=Nc3ccccc32)c(OC)c1 [IC261]
IC50 (CK1α): 10 µM | IC50 (CK1δ/ε): 1 µM

Compound: COc1ccc(OC)c(-c2cc(C(=O)Nc3cc(-c4nc(SC)[nH]c4-c4ccc(F)cc4)ccn3)n(C)c2)c1 [16b, 4-(2,5-Dimethoxyphenyl)-N-(4-(5-(4-fluorphenyl)-2-(methylthio)-1H-imidazol-4-yl)-pyridin-2-yl)-1-methyl-1H-pyrrole-2-carboxamide]
EC50 (Panc89 cells): 7.3 ± 1.9 µM | EC50 (MiaPaCa-2 cells; 48 h incubation): 2.3 ± 0.2 µM | EC50 (Panc-1 cells; 48 h incubation): 5.4 ± 1.5 µM | EC50 (Colo357 cells; 48 h incubation): 5.7 ± 2.2 µM

EC50 (Panc89 cells; Homo sapiens): 2.5 ± 1 µM | EC50 (MiaPaCa-2 cells; [3]): 4.9 ± 0.8 µM | EC50 (Panc-1 cells; [4]): 7 ± 0.7 µM | EC50 (Colo357 cells; [2]): 4.1 ± 1.7 µM
Compound: COc1ccc(CCC(=O)Nc2cc(-c3nc(SC)[nH]c3-c3ccc(F)cc3)ccn2)c(OC)c1 [11a, 3-(2,4-Dimethoxyphenyl)-N-(4-(5-(4-fluorophenyl)-2-(methylthio)-1H-imidazol-4-yl)-pyridin-2-yl)propanamide]

EC50 (MiaPaCa-2 cells; [3]): 2.4 ± 0.7 µM | EC50 (Panc-1 cells; [4]): 5.1 ± 1.6 µM
Compound: COc1ccc(-c2cc(C(=O)Nc3cc(-c4nc(SC)[nH]c4-c4ccc(F)cc4)ccn3)n(C)c2)c(OC)c1 [16a, 4-(2,4-Dimethoxyphenyl)-N-(4-(5-(4-fluorphenyl)-2-(methylthio)-1H-imidazol-4-yl)-pyridin-2-yl)-1-methyl-1H-pyrrole-2-carboxamide]

EC50 (MiaPaCa-2 cells; 48 h incubation): 11.6 ± 1.1 µM | EC50 (Panc-1 cells; 48 h incubation): 15.2 ± 2.6 µM | EC50 (Colo357 cells; 48 h incubation): 15.5 ± 1.6 µM
Compound: COc1ccc(OC)c(NC(=O)Nc2cc(-c3nc(SC)[nH]c3-c3ccc(F)cc3)ccn2)c1 [12b, 1-(2,5-Dimethoxyphenyl)-3-(4-(5-(4-fluorophenyl)-2-(methylthio)-1H-imidazol-4-yl)-pyridin-2-yl)carbamide]

EC50 (MiaPaCa-2 cells; [3]): 7.7 ± 2.5 µM | EC50 (Panc-1 cells; [4]): 10.2 ± 3.2 µM | EC50 (Colo357 cells; [2]): 16.7 ± 5.6 µM
Compound: COc1ccc(-c2cc(C(=O)Nc3cc(-c4nc([S+](C)[O-])[nH]c4-c4ccc(F)cc4)ccn3)n(C)c2)c(OC)c1 (stereo not drawn) [16c, 4-(2,4-Dimethoxyphenyl)-N-(4-(5-(4-fluorophenyl)-2-(methylsulfinyl)-1H-imidazol-4-yl)-pyridin-2-yl)-1-methyl-1H-pyrrol-2-carboxamide]

EC50 (HT-29 cells): 9.3 µM
Compound: CSc1nc(-c2ccnc(NCCc3c[nH]c4ccccc34)c2)c(-c2ccc(F)cc2)[nH]1 [10e, N-(2-(1H-Indol-3-yl)-ethyl)-4-(5-(4-fluorophenyl)-2-(methylthio)-1H-imidazol-4-yl)-pyridin-2-amine]

EC50 (Panc89 cells; Homo sapiens): 8.3 ± 2.2 µM | EC50 (Colo357 cells; [2]): 4.5 ± 1.3 µM
Compound: COc1cc(CCC(=O)Nc2cc(-c3nc(SC)[nH]c3-c3ccc(F)cc3)ccn2)cc(OC)c1OC [11e, 3-(3,4,5-Trimethoxyphenyl)-N-(4-(5-(4-fluorophenyl)-2-(methylthio)-1H-imidazol-4-yl)-pyridin-2-yl)-propanamide]

EC50 (Panc89 cells; Homo sapiens): 19.6 ± 3.8 µM | EC50 (MiaPaCa-2 cells; [3]): 15.22 ± 0.04 µM | EC50 (Panc-1 cells; [4]): 16.1 ± 5.6 µM | EC50 (Colo357 cells; [2]): 17.4 ± 0.04 µM
Compound: COc1ccc(NC(=O)Nc2cc(-c3nc(SC)[nH]c3-c3ccc(F)cc3)ccn2)c(OC)c1 [12a, 1-(2,4-Dimethoxyphenyl)-3-(4-(5-(4-fluorophenyl)-2-(methylthio)-1H-imidazol-4-yl)-pyridin-2-yl)carbamide]

EC50 (Panc89 cells; Homo sapiens): 7.8 ± 0.4 µM | EC50 (Colo357 cells; [2]): 5.9 ± 2.4 µM
Compound: COc1ccc(CCC(=O)Nc2cc(-c3nc(SC)[nH]c3-c3ccc(F)cc3)ccn2)cc1OC [11d, 3-(3,4-Dimethoxyphenyl)-N-(4-(5-(4-fluorophenyl)-2-(methylthio)-1H-imidazol-4-yl)-pyridin-2-yl)-propanamide]

Compound: COc1ccc(/C=C/C(=O)Nc2cc(-c3nc(SC)[nH]c3-c3ccc(F)cc3)ccn2)c(OC)c1 [compound 1]
IC50 (CK1ε): 0.073 µM | chemical stability in DMSO solution (HPLC analysis) [1]: increasing number of not identifiable degradation products
